Source: paper PMC12526212, “Novel Isolongifolenone-Based Caprolactam Derivatives as Potential Anticancer Agents via the p53/mTOR/Autophagy Pathway” (Molecules, 2025)

How the values were obtained:
A549 = test: CCK-8 antiproliferative assay, A549; type: cell-based; conditions: Homo sapiens, A549; CCK-8, 48 h, mean ± SD of three experiments; read-out: IC50 A549
Procedure: (§1) After synthesis and characterization, the isolongifolenone bicyclocaprolactam derivatives were evaluated for their in vitro antiproliferative activity against three cancer cell lines (MCF-7, HepG2, A549) using a CCK-8 assay. […] In general, the antiproliferative activities of most of these compounds were similar, irrespective of whether electron-withdrawing or electron-donating substituents were introduced in the phenoxy ring.
(§2) Three cancer cell lines (human breast adenocarcinoma cells MCF-7, human lung adenocarcinoma epithelial cells A549, and human hepatocellular carcinoma cells HepG2) were obtained from the Cell Bank of the Chinese Academy of Sciences (Shanghai, China). LO2 human normal liver cells were also purchased from STEM RECELL (Beijing, China, STM-CL-5770). The anti-proliferation activity of compounds was tested on three cancer cell lines. The cytotoxicity of compounds as tested on normal cell line (human normal liver cells LO2). Cells were seeded at a density of 5000 cells per well in 96-well plates. Natural product piperlongumine was used as the positive control. All experiments were performed in triplicate. Three cancer cell lines were cultured in High DMEM medium or RIPM 1640 containing 10% FBS (Sijiqing, Hangzhou, China) and 1% antibiotics at 37 °C in a 5% CO2 incubator. The experimental cells were seeded in a 96-well plate at 5000 cells per well and incubated for 24 h. The old medium was replaced with experimental medium, and the cells were cultured for 48 h. Afterward, 10 µL of CCK-8 solution was added to each well, and the cells were incubated for 3 h. The absorbance at 450 nm was measured using a microplate reader.

MCF-7 cells [1] = test: Monodansylcadaverine (MDC) staining assay for autophagy; type: cell-based, human; conditions: 24 h, compared with control; 3-MA as co-treatment with E10
Procedure: To investigate whether E10 induced autophagy in MCF-7 cells, we performed Monodansylcadaverine (MDC) staining, transmission electron microscopy (TEM), and Western blot analysis to evaluate autophagy-related markers. MDC is a fluorescent probe commonly used to detect the formation of autophagic vacuoles, as it specifically labels autophagosomes.
MDC is a staining indicator for the formation of autophagosome. MCF-7 cells were seeded at a density of 2 × 10^5 cells per well in 6-well plates. MCF-7 cells were inoculated into a 6-well plate, and the cells were treated with E10 for 24 h. The treated cells were washed twice with buffer and then stained with MDC (Beijing Solarbio Science & Technology Co., Ltd., Beijing, China) for 40 min. The cells were then detected under a fluorescence microscope (Carl Zeiss, Jena, Germany).

MCF-7 = test: CCK-8 antiproliferative assay, MCF-7; type: cell-based; conditions: Homo sapiens, MCF7; CCK-8, 48 h, mean ± SD of three experiments; read-out: IC50 MCF-7
Procedure: as §1, §2

MCF-7 cells [2] = test: MMP assay (JC-1, flow cytometry); type: cell-based, human; conditions: 24 h
Procedure: If intracellular ROS levels rise above a certain threshold, the mitochondria may become damaged. […] In these experiments, MCF-7 cells were incubated with E10 for 24 h, and mitochondrial membrane potential (MMP) was then evaluated by flow cytometry using JC-1 as an indicator. […] These changes in the red/green fluorescence ratio are indicative of mitochondrial depolarization, a decrease in mitochondrial function, and potentially damage to mitochondria.
MCF-7 cells were treated with different concentrations of compound E10 for 24 h. After that, the cells were collected and stained with JC-1 (Yeasen, Shanghai, China, 40706ES60) for 15 min. The cell samples were detected by flow cytometry (BD) and the data were analyzed by flowjo 10.6 software.

MCF-7 cells [3] = test: Comet assay (DNA damage); type: cell-based, human; conditions: 24 h
Procedure: DNA fragmentation is a hallmark of apoptosis, mitotic catastrophe, or both. DNA damage in MCF-7 cells was investigated by single-cell gel electrophoresis in an agarose gel matrix (the ‘comet assay’). In this assay, the length of the ‘comet tail’ observed after EB staining of the cell nuclei is an indicator of the extent of DNA damage.
MCF-7 cells were seeded in 24-well plastic plates at a density of 5 × 10^4 cells per well and treated with compound E10 for 24 h. The alkaline DNA comet assay was performed according to the instructions of the OxiSelectTM Comet Assay Kit (Cell Biolabs, San Diego, CA, USA, Cat. # STA-350) and analyzed using a Zeiss fluorescent microscope (Jena, Germany). The free software Casplab-1.2.3b2 (CAS PLab, Wroclaw, Poland) was used to calculate the percentage of tail DNA and Olive Tail Moment (OTM) as markers of DNA damage (Olive Tail Moment = Tail DNA (%) × Tail Moment Length).

LO2 = test: CCK-8 cytotoxicity on normal cell line LO2; type: cell-based; conditions: Homo sapiens, L02; normal liver cells, CCK-8, 48 h, mean ± SD of three experiments
Procedure: as §2

MCF-7 xenograft = test: Zebrafish MCF-7 xenograft model; type: in vivo
From the text: Zebrafish have become a well-established model for both anticancer drug discovery and toxicity evaluation. This animal model affords several unique advantages, including rapid development, optical transparency, and genetic conservation with humans. These features make zebrafish particularly suitable for high-throughput in vivo screening and mechanistic studies in oncology research. Tumor burden in zebrafish xenografts is commonly quantified from Dil/DiI-labeled fluorescence area or integrated intensity, which correlates with cell number and treatment response. To assess the in vivo antitumor efficacy of compound E10, we established a zebrafish xenograft model. Briefly, CM-Dil-labeled MCF-7 cells (showing red fluorescence) were microinjected into the yolk sacs of zebrafish embryos. The xenografted zebrafish were then randomly assigned into five groups: three E10-treatment groups (0.5 µg/mL, 1.0 µg/mL, and 2.0 µg/mL), a Doxorubicin (Dox) positive control group, and a PBS negative control group.
All experimental procedures were approved by ACUC of Shandong Academy of Sciences (Animal Care and Use Committee). Wild-type AB of zebrafish were obtained from Biology Institute, Qilu University of Technology. The embryos were incubated in special embryonic medium (0.17 mM KCl, 5.0 mM NaCl, 0.4 mM CaCl2, and 0.16 mM MgSO4) at 28 °C. 48 h-old zebrafish embryos were microinjected with CM-Dil labelled MCF-7 cells under stereomicroscopy. After injection, zebrafish embryos with the same injection spot were randomly planted on a six-well plate. These xenograft zebrafish were sorted into four groups of about 15–20 zebrafish each and treated with 0.5, 1.0, 2.0 μg/mL of compound E10 for 48 h, 1.0 μM doxorubicin as a positive control group. After treatment, the fluorescence intensity of living cells was examined with laser confocal microscopy (Olympus, Tokyo, Japan).

CC1(C)C2=CC(=O)N(C(=O)C=Cc3cccc(C(F)(F)F)c3)CC(C)(C)C23CCC1C3 (centres unmarked) [E10, 5,5,9,9-Tetramethyl-3-(3-(3-(trifluoromethyl)phenyl)acryloyl)-4,5,6,7,8,9-hexahydro-5a,8-methanobenzo[d]azepin-2(3H)-one]
IC50 (A549): 1.39 ± 0.32 µM
MDC staining, autophagosome formation (MCF-7 cells [1]): significantly increased the number of punctate green fluorescence signals
IC50 (MCF-7): 0.32 ± 0.05 µM
mitochondrial membrane potential (MCF-7 cells [2]): concentration-dependent reduction in MMP
DNA damage, comet formation (MCF-7 cells [3]): induced DNA fragmentation
IC50 (LO2): 14.41 ± 0.04 µM
inhibition rate (decrease in fluorescence) (MCF-7 xenograft; 2.0 µg/mL E10, 48 h): 50.0%
fluorescence intensity of xenograft (MCF-7 xenograft; 48 h, compared with PBS control, Dox 1.0 μM): notable reduction in fluorescence intensity
